# Assays:
# [1] = molecular target: mHTT aggregates in HOM zQ175 HD mouse brain sections; assay: In vitro autoradiography (ARG) saturation binding, HOM zQ175 brain sections; settings: HOM zQ175 12 months, cortex
# Description: (§1) Twenty µm-thick sections were prepared from brains of disease mouse models and WT mice or human post-mortem brain samples by using a cryostat, mounted on superfrost slides and stored at -80 °C for a maximum of 2 weeks. On the day of the experiment, slides were adapted to room temperature for 30 min and then equilibrated by immersion into assay buffer (50 mM Tris–HCl pH 7.4; 120 mM NaCl; 5 mM KCl; 2 mM CaCl2; 1 mM MgCl2) for 20 min at room temperature.
# (§2) Radioligand solutions were prepared in assay buffer. Optimal radioligand concentrations were determined in advance based on signal-to-background ratio obtained in mouse or human brain tissue. The solutions were mixed in a Coplin jar (Sigma, S5516-6EA) by gently shaking at 175 rpm for 10 min at room temperature. Sections were incubated by immersion into assay buffer containing either only radioligand (total binding or TB) or radioligand plus 10 µM of unlabeled compound (non-specific binding or NSB) for 60 min at room temperature. Afterwards slides were washed three times for 10 min with ice-cold washing buffer (50 mM Tris–HCl (pH 7.4)) at 4 °C and dipped for three seconds in ice-cold distilled water to remove buffer salts. […]
# Exon1-Q46 aggregates = molecular target: T1, Exon1-Q46 aggregates (Homo sapiens, UniProt P42858, INS38QQQQQQQQQQQQQQQQQQQQQQQQQ); assay: RAFTA saturation binding, recombinant Exon1-Q46 aggregates
# T1 construct: MBP-HTT(1-89)Q46-His(6x); MBP (N, cleaved yes); made in house; host or cells: E. coli BL21 (DE3)
# T1 sequence (P42858 with tags, fused parts or gaps with the stated changes): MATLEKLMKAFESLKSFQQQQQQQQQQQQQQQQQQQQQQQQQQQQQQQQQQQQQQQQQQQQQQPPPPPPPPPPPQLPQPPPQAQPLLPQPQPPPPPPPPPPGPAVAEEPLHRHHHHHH
# [2] = system: mHTT aggregates in HOM zQ175 brain sections; assay: In vitro ARG, single concentration, HOM zQ175 brain sections; format: binding, mouse; settings: 0.5 nM
# Description: as §1
# Radioligand solutions were prepared in assay buffer. Optimal radioligand concentrations were determined in advance based on signal-to-background ratio obtained in mouse or human brain tissue. The solutions were mixed in a Coplin jar (Sigma, S5516-6EA) by gently shaking at 175 rpm for 10 min at room temperature. Sections were incubated by immersion into assay buffer containing either only radioligand (total binding or TB) or radioligand plus 10 µM of unlabeled compound (non-specific binding or NSB) for 60 min at room temperature. Afterwards slides were washed three times for 10 min with ice-cold washing buffer (50 mM Tris–HCl (pH 7.4)) at 4 °C and dipped for three seconds in ice-cold distilled water to remove buffer salts. The slides were dried for 3 h at 30 °C and exposed for 96 h to a Tritium Phosphor Screen (GE Healthcare, Fuji BAS-TR 2025 E) Stored radiation energy on the screen was scanned using a Phosphorimager (GE Healthcare, Typhoon FLA 7000). Densitometric data analysis of radioligand binding was performed using the MCID Analysis 7.1 software (Interfocus Imaging Ltd.). Radioisotope concentration standards (American Radiolabeled Chemicals, ART 0123C and ART 0123B) were exposed with each specimen to enable conversion of density values into tissue-equivalent ligand concentrations (e.g., fmol/mg tissue). A standard curve was created to relate the system´s internal relative optical density measurement (ROD; an inverse logarithmic function of gray level values) to the set of standard values (e.g., isotope concentration). The standard´s isotope concentration (e.g., nCi/mg) is therefore converted into tissue-equivalent ligand concentrations (e.g., fmol/mg tissue) by referring to the radioligand´s specific activity (e.g., Ci/mmol) and including decay-correction. After phosphor screen exposure the human brain sections were stained for 4 min with 0.1% toluidine blue dye solution (Sigma-Aldrich) and rinsed twice in distilled water. To differentiate gray and white matter, the slides were decolorized with 70% ethanol (Merck) for 2–5 min followed by rinse in distilled water. Gray matter appears as gray color and white matter as bluish.
# [3] = ARG, human post-mortem CTRL frontal cortex sections; format: binding
# [4] = system: mHTT aggregates in R6/2 mice brain sections; assay: In vitro ARG, R6/2 mouse brain sections; format: binding; settings: 4-, 8- and 12-week-old R6/2 mice
# Description: as §1, §2
# [5] = set-up: method as in PMID 34351166, PMID 32662649; settings: cited from earlier work
smiles,measurement,setting,value
COc1ccc(COc2ccc3oc(-c4ccc(=O)n(C)n4)nc3c2)nc1 [CHDI-180],Kd,[1],1.1 nM
same,ARG Bmax,[1]; per mg tissue,163.0 fmol/mg
same,Kd,Exon1-Q46 aggregates,5.6 nM
same,RAFTA Bmax,Exon1-Q46 aggregates,1456 fmol/mg
same,NSB,"[2]; 3 month HOM Q175, CTX",1.3 ± 2.2 fmol/mg
same,SB,"[2]; 3 month HOM Q175, CTX",4.3 ± 2.3 fmol/mg
same,TB,"[2]; 3 month HOM Q175, CTX",5.6 ± 0.3 fmol/mg
same,NSB,"[2]; 3 month HOM Q175, HPC",0.3 ± 0.3 fmol/mg
same,SB,"[2]; 3 month HOM Q175, HPC",4.8 ± 0.4 fmol/mg
same,TB,"[2]; 3 month HOM Q175, HPC",5.1 ± 0.3 fmol/mg
same,NSB,"[2]; 3 month HOM Q175, STR",0.4 ± 0.4 fmol/mg
same,SB,"[2]; 3 month HOM Q175, STR",3.5 ± 0.3 fmol/mg
same,TB,"[2]; 3 month HOM Q175, STR",3.9 ± 0.5 fmol/mg
same,NSB,"[2]; 6 month HOM Q175, CTX",0.2 ± 0.4 fmol/mg
same,SB,"[2]; 6 month HOM Q175, CTX",24.4 ± 1.4 fmol/mg
same,TB,"[2]; 6 month HOM Q175, CTX",24.6 ± 1.0 fmol/mg
same,NSB,"[2]; 6 month HOM Q175, HPC",0.1 ± 0.0 fmol/mg
same,SB,"[2]; 6 month HOM Q175, HPC",25.0 ± 1.6 fmol/mg
same,TB,"[2]; 6 month HOM Q175, HPC",25.1 ± 1.6 fmol/mg
same,NSB,"[2]; 6 month HOM Q175, STR",0.3 ± 0.2 fmol/mg
same,SB,"[2]; 6 month HOM Q175, STR",15.8 ± 2.7 fmol/mg
same,TB,"[2]; 6 month HOM Q175, STR",16.1 ± 2.9 fmol/mg
same,NSB,"[2]; 9 month HOM Q175, CTX",0.9 ± 0.8 fmol/mg
same,SB,"[2]; 9 month HOM Q175, CTX",48.8 ± 8.3 fmol/mg
same,TB,"[2]; 9 month HOM Q175, CTX",49.7 ± 7.4 fmol/mg
same,NSB,"[2]; 9 month HOM Q175, HPC",0.2 ± 0.2 fmol/mg
same,SB,"[2]; 9 month HOM Q175, HPC",41.3 ± 2.2 fmol/mg
same,TB,"[2]; 9 month HOM Q175, HPC",41.5 ± 2.4 fmol/mg
same,NSB,"[2]; 9 month HOM Q175, STR",0.4 ± 0.4 fmol/mg
same,SB,"[2]; 9 month HOM Q175, STR",28.4 ± 2.4 fmol/mg
same,TB,"[2]; 9 month HOM Q175, STR",28.8 ± 2.7 fmol/mg
same,NSB,"[2]; 12 month HOM Q175, CTX",0.8 ± 0.7 fmol/mg
same,SB,"[2]; 12 month HOM Q175, CTX",70.2 ± 10.5 fmol/mg
same,TB,"[2]; 12 month HOM Q175, CTX",70.9 ± 11.0 fmol/mg
same,NSB,"[2]; 12 month HOM Q175, HPC, n=2",0.4 ± 0.7 fmol/mg
same,NSB,"[2]; 12 month HOM Q175, STR",0.4 ± 0.3 fmol/mg
same,SB,"[2]; 12 month HOM Q175, STR",41.3 ± 2.8 fmol/mg
same,TB,"[2]; 12 month HOM Q175, STR",41.6 ± 3.1 fmol/mg
same,NSB in CTRL brain sections,[3]; 1 nM radioligand plus cold compound,below 0.5 fmol/mg tissue
same,"binding to frontal cortical sections, CTRL tissue","[3]; 1 nM radioligand, gray matter",0.8 ± 0.3 fmol/mg tissue
same,"specific binding to STR, CTX and HPC with age",[4],age-dependent increase in specific binding
same,"plasma, microsomal, and hepatocyte stability",[5],acceptable

# From article PMC8429736, “Pharmacological characterization of mutant huntingtin aggregate-directed PET imaging tracer candidates” (Scientific Reports, 2021)
